± gives the expanded uncertainty stated by the source.
Assay: molar heat capacity at constant volume; xn = mol fraction of the nth substance listed

## CCCCCCCCCC [decane] + O=C=O
443.07 K, Fluid (supercritical or subcritical phases), Mass density=374.7 kg/m3, Isochoric Heat Capacity Apparatus, x1 = 0.095
  molar heat capacity at constant volume: 344.18 ± 6.9 J/K/mol
443.68 K, Fluid (supercritical or subcritical phases), Mass density=374.7 kg/m3, Isochoric Heat Capacity Apparatus, x1 = 0.095
  molar heat capacity at constant volume: 343.49 ± 6.9 J/K/mol
444.49 K, Fluid (supercritical or subcritical phases), Mass density=374.7 kg/m3, Isochoric Heat Capacity Apparatus, x1 = 0.095
  molar heat capacity at constant volume: 342.85 ± 6.9 J/K/mol
447.32 K, Fluid (supercritical or subcritical phases), Mass density=457.5 kg/m3, Isochoric Heat Capacity Apparatus, x1 = 0.178
  molar heat capacity at constant volume: 485.87 ± 9.7 J/K/mol
447.32 K, Liquid, iso, x1 = 0.178
  molar heat capacity at constant volume: 568.28 ± 11 J/K/mol
447.95 K, Fluid (supercritical or subcritical phases), Mass density=457.5 kg/m3, Isochoric Heat Capacity Apparatus, x1 = 0.178
  molar heat capacity at constant volume: 478.12 ± 9.6 J/K/mol
448.27 K, Fluid (supercritical or subcritical phases), Mass density=457.5 kg/m3, Isochoric Heat Capacity Apparatus, x1 = 0.178
  molar heat capacity at constant volume: 482.3 ± 9.7 J/K/mol
448.55 K, Fluid (supercritical or subcritical phases), Mass density=457.5 kg/m3, Isochoric Heat Capacity Apparatus, x1 = 0.178
  molar heat capacity at constant volume: 479.96 ± 9.6 J/K/mol
449.12 K, Fluid (supercritical or subcritical phases), Mass density=398.3 kg/m3, Isochoric Heat Capacity Apparatus, x1 = 0.095
  molar heat capacity at constant volume: 331.01 ± 6.6 J/K/mol
451.39 K, Fluid (supercritical or subcritical phases), Mass density=201.8 kg/m3, Isochoric Heat Capacity Apparatus, x1 = 0.178
  molar heat capacity at constant volume: 488.2 ± 9.8 J/K/mol
451.39 K, Liquid, iso, x1 = 0.178
  molar heat capacity at constant volume: 574.18 ± 12 J/K/mol
452.33 K, Fluid (supercritical or subcritical phases), Mass density=457.5 kg/m3, Isochoric Heat Capacity Apparatus, x1 = 0.178
  molar heat capacity at constant volume: 465.26 ± 9.3 J/K/mol
452.33 K, Fluid (supercritical or subcritical phases), Mass density=509.4 kg/m3, Isochoric Heat Capacity Apparatus, x1 = 0.095
  molar heat capacity at constant volume: 318.95 ± 6.4 J/K/mol
453.23 K, Fluid (supercritical or subcritical phases), Mass density=457.5 kg/m3, Isochoric Heat Capacity Apparatus, x1 = 0.178
  molar heat capacity at constant volume: 462.99 ± 9.3 J/K/mol
457.12 K, Fluid (supercritical or subcritical phases), Mass density=374.7 kg/m3, Isochoric Heat Capacity Apparatus, x1 = 0.095
  molar heat capacity at constant volume: 340.82 ± 6.8 J/K/mol
457.77 K, Liquid, iso, x1 = 0.178
  molar heat capacity at constant volume: 595.83 ± 12 J/K/mol
459 K, Fluid (supercritical or subcritical phases), Mass density=477.6 kg/m3, Isochoric Heat Capacity Apparatus, x1 = 0.095
  molar heat capacity at constant volume: 323.65 ± 6.5 J/K/mol
460.15 K, Liquid, iso, x1 = 0.178
  molar heat capacity at constant volume: 606.1 ± 12 J/K/mol
460.39 K, Fluid (supercritical or subcritical phases), Mass density=320.2 kg/m3, Isochoric Heat Capacity Apparatus, x1 = 0.095
  molar heat capacity at constant volume: 354.21 ± 7.1 J/K/mol
460.69 K, Fluid (supercritical or subcritical phases), Mass density=320.2 kg/m3, Isochoric Heat Capacity Apparatus, x1 = 0.095
  molar heat capacity at constant volume: 351.33 ± 7 J/K/mol
460.89 K, Fluid (supercritical or subcritical phases), Mass density=320.2 kg/m3, Isochoric Heat Capacity Apparatus, x1 = 0.095
  molar heat capacity at constant volume: 350 ± 7 J/K/mol
463.26 K, Fluid (supercritical or subcritical phases), Mass density=87 kg/m3, Isochoric Heat Capacity Apparatus, x1 = 0.095
  molar heat capacity at constant volume: 712.69 ± 14 J/K/mol
463.26 K, Fluid (supercritical or subcritical phases), Mass density=398.3 kg/m3, Isochoric Heat Capacity Apparatus, x1 = 0.095
  molar heat capacity at constant volume: 334.16 ± 6.7 J/K/mol
463.45 K, Fluid (supercritical or subcritical phases), Mass density=457.5 kg/m3, Isochoric Heat Capacity Apparatus, x1 = 0.178
  molar heat capacity at constant volume: 459.11 ± 9.2 J/K/mol
463.65 K, Fluid (supercritical or subcritical phases), Mass density=87 kg/m3, Isochoric Heat Capacity Apparatus, x1 = 0.095
  molar heat capacity at constant volume: 685.49 ± 14 J/K/mol
463.85 K, Fluid (supercritical or subcritical phases), Mass density=87 kg/m3, Isochoric Heat Capacity Apparatus, x1 = 0.095
  molar heat capacity at constant volume: 688.16 ± 14 J/K/mol
464.05 K, Fluid (supercritical or subcritical phases), Mass density=87 kg/m3, Isochoric Heat Capacity Apparatus, x1 = 0.095
  molar heat capacity at constant volume: 691.36 ± 14 J/K/mol
465.43 K, Fluid (supercritical or subcritical phases), Mass density=87 kg/m3, Isochoric Heat Capacity Apparatus, x1 = 0.095
  molar heat capacity at constant volume: 690.82 ± 14 J/K/mol
466.3 K, Fluid (supercritical or subcritical phases), Mass density=408.8 kg/m3, Isochoric Heat Capacity Apparatus, x1 = 0.178
  molar heat capacity at constant volume: 493.61 ± 9.9 J/K/mol
467.05 K, Fluid (supercritical or subcritical phases), Mass density=408.8 kg/m3, Isochoric Heat Capacity Apparatus, x1 = 0.178
  molar heat capacity at constant volume: 490.54 ± 9.8 J/K/mol
467.19 K, Fluid (supercritical or subcritical phases), Mass density=87 kg/m3, Isochoric Heat Capacity Apparatus, x1 = 0.095
  molar heat capacity at constant volume: 706.83 ± 14 J/K/mol
467.97 K, Fluid (supercritical or subcritical phases), Mass density=408.8 kg/m3, Isochoric Heat Capacity Apparatus, x1 = 0.178
  molar heat capacity at constant volume: 487.71 ± 9.8 J/K/mol
468.76 K, Fluid (supercritical or subcritical phases), Mass density=374.7 kg/m3, Isochoric Heat Capacity Apparatus, x1 = 0.095
  molar heat capacity at constant volume: 336.34 ± 6.7 J/K/mol
468.76 K, Fluid (supercritical or subcritical phases), Mass density=408.8 kg/m3, Isochoric Heat Capacity Apparatus, x1 = 0.178
  molar heat capacity at constant volume: 486.42 ± 9.7 J/K/mol
470.72 K, Fluid (supercritical or subcritical phases), Mass density=477.6 kg/m3, Isochoric Heat Capacity Apparatus, x1 = 0.095
  molar heat capacity at constant volume: 326.31 ± 6.5 J/K/mol
471.2 K, Fluid (supercritical or subcritical phases), Mass density=281.4 kg/m3, Isochoric Heat Capacity Apparatus, x1 = 0.095
  molar heat capacity at constant volume: 360.93 ± 7.2 J/K/mol
471.69 K, Fluid (supercritical or subcritical phases), Mass density=281.4 kg/m3, Isochoric Heat Capacity Apparatus, x1 = 0.095
  molar heat capacity at constant volume: 359.81 ± 7.2 J/K/mol
471.89 K, Fluid (supercritical or subcritical phases), Mass density=281.4 kg/m3, Isochoric Heat Capacity Apparatus, x1 = 0.095
  molar heat capacity at constant volume: 358.48 ± 7.1 J/K/mol
473.25 K, Fluid (supercritical or subcritical phases), Mass density=281.4 kg/m3, Isochoric Heat Capacity Apparatus, x1 = 0.095
  molar heat capacity at constant volume: 350.91 ± 7 J/K/mol
474.61 K, Fluid (supercritical or subcritical phases), Mass density=457.5 kg/m3, Isochoric Heat Capacity Apparatus, x1 = 0.178
  molar heat capacity at constant volume: 456.77 ± 9.2 J/K/mol
475.97 K, Fluid (supercritical or subcritical phases), Mass density=110.8 kg/m3, Isochoric Heat Capacity Apparatus, x1 = 0.095
  molar heat capacity at constant volume: 594.8 ± 12 J/K/mol
476.12 K, Fluid (supercritical or subcritical phases), Mass density=110.8 kg/m3, Isochoric Heat Capacity Apparatus, x1 = 0.095
  molar heat capacity at constant volume: 599.07 ± 12 J/K/mol
476.33 K, Fluid (supercritical or subcritical phases), Mass density=110.8 kg/m3, Isochoric Heat Capacity Apparatus, x1 = 0.095
  molar heat capacity at constant volume: 591.07 ± 12 J/K/mol
476.36 K, Fluid (supercritical or subcritical phases), Mass density=320.2 kg/m3, Isochoric Heat Capacity Apparatus, x1 = 0.095
  molar heat capacity at constant volume: 342.64 ± 6.8 J/K/mol
476.56 K, Fluid (supercritical or subcritical phases), Mass density=408.8 kg/m3, Isochoric Heat Capacity Apparatus, x1 = 0.178
  molar heat capacity at constant volume: 472.21 ± 9.5 J/K/mol
476.75 K, Fluid (supercritical or subcritical phases), Mass density=110.8 kg/m3, Isochoric Heat Capacity Apparatus, x1 = 0.095
  molar heat capacity at constant volume: 590.53 ± 12 J/K/mol
476.94 K, Fluid (supercritical or subcritical phases), Mass density=398.3 kg/m3, Isochoric Heat Capacity Apparatus, x1 = 0.095
  molar heat capacity at constant volume: 336.82 ± 6.7 J/K/mol
477.33 K, Fluid (supercritical or subcritical phases), Mass density=110.8 kg/m3, Isochoric Heat Capacity Apparatus, x1 = 0.095
  molar heat capacity at constant volume: 594.8 ± 12 J/K/mol
477.52 K, Fluid (supercritical or subcritical phases), Mass density=374.7 kg/m3, Isochoric Heat Capacity Apparatus, x1 = 0.095
  molar heat capacity at constant volume: 337.73 ± 6.8 J/K/mol
477.52 K, Fluid (supercritical or subcritical phases), Mass density=375 kg/m3, Isochoric Heat Capacity Apparatus, x1 = 0.178
  molar heat capacity at constant volume: 493.12 ± 9.8 J/K/mol
477.81 K, Fluid (supercritical or subcritical phases), Mass density=375 kg/m3, Isochoric Heat Capacity Apparatus, x1 = 0.178
  molar heat capacity at constant volume: 495.64 ± 9.9 J/K/mol
478.2 K, Fluid (supercritical or subcritical phases), Mass density=375 kg/m3, Isochoric Heat Capacity Apparatus, x1 = 0.178
  molar heat capacity at constant volume: 491.03 ± 9.8 J/K/mol
478.49 K, Fluid (supercritical or subcritical phases), Mass density=375 kg/m3, Isochoric Heat Capacity Apparatus, x1 = 0.178
  molar heat capacity at constant volume: 492.57 ± 9.8 J/K/mol
479.84 K, Fluid (supercritical or subcritical phases), Mass density=408.8 kg/m3, Isochoric Heat Capacity Apparatus, x1 = 0.178
  molar heat capacity at constant volume: 471.47 ± 9.4 J/K/mol
481.77 K, Fluid (supercritical or subcritical phases), Mass density=241 kg/m3, Isochoric Heat Capacity Apparatus, x1 = 0.095
  molar heat capacity at constant volume: 380.35 ± 7.6 J/K/mol
481.96 K, Fluid (supercritical or subcritical phases), Mass density=241 kg/m3, Isochoric Heat Capacity Apparatus, x1 = 0.095
  molar heat capacity at constant volume: 378.38 ± 7.6 J/K/mol
482.02 K, Fluid (supercritical or subcritical phases), Mass density=131.5 kg/m3, Isochoric Heat Capacity Apparatus, x1 = 0.095
  molar heat capacity at constant volume: 517.93 ± 10 J/K/mol
482.41 K, Fluid (supercritical or subcritical phases), Mass density=131.5 kg/m3, Isochoric Heat Capacity Apparatus, x1 = 0.095
  molar heat capacity at constant volume: 521.08 ± 10 J/K/mol
483.31 K, Fluid (supercritical or subcritical phases), Mass density=241 kg/m3, Isochoric Heat Capacity Apparatus, x1 = 0.095
  molar heat capacity at constant volume: 370.32 ± 7.4 J/K/mol
483.37 K, Fluid (supercritical or subcritical phases), Mass density=131.5 kg/m3, Isochoric Heat Capacity Apparatus, x1 = 0.095
  molar heat capacity at constant volume: 528.44 ± 11 J/K/mol
485.04 K, Fluid (supercritical or subcritical phases), Mass density=281.4 kg/m3, Isochoric Heat Capacity Apparatus, x1 = 0.095
  molar heat capacity at constant volume: 352.45 ± 7 J/K/mol

From the NIST ThermoML archive (doi:10.1007/s10765-006-0056-z)
